Data taken from the supplement of paper PMC3974653.
Structures can show the parent of a compound that is named as a salt.

Tested on: MTT (mouse pheochromocytoma)
Assay: IC50 of cell viability (ATP content)
Details: (24 or 48 h)
How it was run: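 Each well of a white 1536-well plate received 5 µl of MTT mouse pheochromocytoma cells at 200,000 cells/ml in DMEM containing 5% FBS and 1% horse serum. After overnight culture at 37°C, 5% CO2, cells were exposed for 24 or 48 hrs to 23 nl of library compound in DMSO, pinned at 8 final concentrations from 0.5 nM to 46 µM. CellTiter-Glo luminescence was read after 15 minutes, and IC50 was obtained from a four-parameter logistic fit of signals normalised to positive-control and DMSO wells.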

CN1CCN(C2=Nc3ccccc3Sc3ccc(Cl)cc32)CC1 [Clothiapine]
IC50 of cell viability: > 46 µM

Clc1ccccc1C(c1ccccc1)(c1ccccc1)n1ccnc1 [Clotrimazole]
IC50 of cell viability: > 46 µM

[Na+].CC1=C(C(=O)N[C@H]2[C@H]3SC(C)(C)[C@H]([N@]3C2=O)C([O-])=O)C(=NO1)C4=C(Cl)C=CC=C4 [Cloxacillin sodium salt]
IC50 of cell viability: > 46 µM

O.O.O.O.O.O.O.O=S(=O)([O-])[O-].[Co+2] [Cobalt sulfate heptahydrate]
IC50 of cell viability: > 46 µM

COC1=C2OC3C(O)\C=C/C4[C@H]5CC(=C2[C@@]34CCN5C)C=C1 (stereo partly drawn) [Codeine]
IC50 of cell viability: > 46 µM

COC1=C(OC)C(=O)C(C/C=C(\C)CC/C=C(\C)CC/C=C(\C)CC/C=C(/C)CC/C=C(\C)CC/C=C(\C)CC/C=C(\C)CC/C=C(\C)CC/C=C(\C)CCC=C(C)C)=C(C)C1=O [Coenzyme Q10]
IC50 of cell viability: > 46 µM

CCCCC(CC)COC(=O)CC(C(=O)OCC(CC)CCCC)S(=O)(=O)[O-] (stereo not drawn) [Colace]
IC50 of cell viability: > 46 µM

CC(C)CCCC(C)C1CC(=O)C2=C3CCC4CC(O)CCC4(C)C3CCC21C (stereo not drawn) [Colestolone]
IC50 of cell viability: > 46 µM

C[C@]\12CCC(=O)\C=C1CC[C@@H]3[C@@H]2CC[C@@]4(C)[C@H]3CC[C@]4(O)C(=O)CO [Cortexolone]
IC50 of cell viability: > 46 µM

C[C@]12C[C@H](O)[C@H]3[C@@H](CCC/4=C/C(=O)CC[C@]34C)[C@@H]1CC[C@@H]2C(=O)CO [Corticosterone]
IC50 of cell viability: > 46 µM

CC(=O)OCC(=O)[C@@]1(O)CC[C@H]2[C@@H]3CCC/4=C/C(=O)CC[C@]4(C)[C@H]3C(=O)C[C@]12C [Cortisone 21-acetate]
IC50 of cell viability: > 46 µM

O=C\1OC2=C(C=CC=C2)\C=C1 [Coumarin]
IC50 of cell viability: > 46 µM

OC(COC1=CC=CC2=C1C(=O)\C=C(/O2)C(O)=O)COC3=CC=CC4=C3C(=O)\C=C(/O4)C(O)=O [Cromolyn sodium]
IC50 of cell viability: > 46 µM

C/C=C\C(=O)N(CC)c1ccccc1C [Crotamiton]
IC50 of cell viability: > 46 µM

C/C=C/C=N/NC(=O)c1ccncc1 [Crotoniazida]
IC50 of cell viability: > 46 µM

N#CN [Cyanamide]
IC50 of cell viability: > 46 µM

CC1(C)S[C@H]2[C@H](NC(=O)C3(N)CCCCC3)C(=O)[N@]2[C@H]1C(O)=O [Cyclacillin]
IC50 of cell viability: > 46 µM

O=S(=O)(O)NC1CCCCC1 [Cyclamic acid]
IC50 of cell viability: > 46 µM

CN1CCN(C(c2ccccc2)c2ccccc2)CC1 [Cyclizine hydrochloride]
IC50 of cell viability: > 46 µM

CC1(C)\N=C(N)/N=C(/N)N1C2=CC=C(Cl)C=C2 [Cycloguanil HCl]
IC50 of cell viability: > 46 µM

N[S+](=O)([O-])c1cc2c(cc1Cl)N[C@@H](CC1CCCC1)N[S+]2(=O)[O-] [Cyclopenthiazide]
IC50 of cell viability: > 46 µM

CN(C)CCOC(=O)[C@@H](c1ccccc1)C1(O)CCCC1 [Cyclopentolate hydrochloride]
IC50 of cell viability: > 46 µM

O=P1(N(CCCl)CCCl)NCCCO1 (stereo not drawn) [Cyclophosphamide]
IC50 of cell viability: > 46 µM

C/C=C\C[C@H](C)[C@H](O)[C@H]1C(=O)N[C@@H](CC)C(=O)N(C)CC(=O)N(C)[C@@H](CC(C)C)C(=O)N[C@@H](C(C)C)C(=O)N(C)[C@@H](CC(C)C)C(=O)N[C@@H](C)C(=O)N[C@@H](C)C(=O)N(C)[C@@H](CC(C)C)C(=O)N(C)[C@@H](CC(C)C)C(=O)N(C)[C@@H](C(C)C)C(=O)N1C [Cyclosporin A]
IC50 of cell viability: > 46 µM

NC(=O)C1c2ccccc2CCc2ccccc21 [Cyheptamide]
IC50 of cell viability: > 46 µM

CC1(C)C(\C=C(/Cl)Cl)C1C(=O)OC(C#N)C2=CC=CC(OC3=CC=CC=C3)=C2 (stereo not drawn) [Cypermethrin]
IC50 of cell viability: > 46 µM

Cl.NCCS [Cysteamine hydrochloride]
IC50 of cell viability: > 46 µM

NCCS [Cysteamine]
IC50 of cell viability: > 46 µM

COP(=S)(OC)Oc1ccc([S+](N)(=O)[O-])cc1 [Cythioate]
IC50 of cell viability: > 46 µM

C[N+](C)(C)CCOP(=O)([O-])OP(=O)([O-])OCC1OC(n2ccc(N)nc2=O)[C@H](O)[C@@H]1O (stereo partly drawn) [Cytidine 5'-diphosphocholine sodium salt hydrate]
IC50 of cell viability: > 46 µM

OCC1(O)OC[C@@H](O)[C@H](O)[C@@H]1O (stereo partly drawn) [D-(-)-TAGATOSE]
IC50 of cell viability: > 46 µM

C[C@@H](N)C(=O)O [D-ALANINE]
IC50 of cell viability: > 46 µM

NC(=O)C[C@@H](N)C(=O)O [D-ASPARAGINE]
IC50 of cell viability: > 46 µM

N[C@H](CC(=O)O)C(=O)O [D-ASPARTIC ACID]
IC50 of cell viability: > 46 µM

N[C@H](CCC(=O)O)C(=O)O [D-GLUTAMIC ACID]
IC50 of cell viability: > 46 µM

NC(=O)CC[C@@H](N)C(=O)O [D-GLUTAMINE]
IC50 of cell viability: > 46 µM

O=C[C@H](O)[C@@H](O)[C@H](O)[C@H](O)CO [D-Glucose]
IC50 of cell viability: > 46 µM

CC(C)C[C@@H](N)C(=O)O [D-LEUCINE]
IC50 of cell viability: > 46 µM
